Counter-ions that a name gives are not always drawn.

This experiment addresses T1, human vasopressin V1b receptor (Homo sapiens, UniProt P47901).
T1 construct: expressed in transfected cells; host or cells: CHO-K1 (cell line hV1b-3H2_CHO), membrane preparation
T1 sequence (P47901 1-424): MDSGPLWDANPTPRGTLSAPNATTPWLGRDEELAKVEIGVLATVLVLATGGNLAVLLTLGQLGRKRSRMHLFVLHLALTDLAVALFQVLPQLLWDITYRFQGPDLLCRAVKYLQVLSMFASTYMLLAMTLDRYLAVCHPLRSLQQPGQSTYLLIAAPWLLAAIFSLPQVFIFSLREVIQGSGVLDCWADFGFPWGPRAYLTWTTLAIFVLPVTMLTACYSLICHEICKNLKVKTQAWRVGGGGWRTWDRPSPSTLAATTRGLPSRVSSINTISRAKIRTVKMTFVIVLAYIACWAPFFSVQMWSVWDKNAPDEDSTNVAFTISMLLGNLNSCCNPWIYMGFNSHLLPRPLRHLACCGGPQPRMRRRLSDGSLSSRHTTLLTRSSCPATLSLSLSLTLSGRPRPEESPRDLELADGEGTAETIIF
Kind of experiment: Vasopressin V1b receptor binding assay. To be noted: membranes from CHO-K1 cells with stably expressed human V1b receptors, 1.5 nM 3H-AVP displacement; with more than one stereogenic center: the diastereomer with stronger affinity. In a few lines: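 Membranes bearing human V1b receptor incubated 60 min at room temperature in 50 mM Tris, 10 mM MgCl2, 0.1% BSA, pH 7.4, 2% DMSO, triplicate.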
With `CCOc1cc(OC)ccc1C1(N2CCC(N3CCNCC3)CC2)C(=O)N(S(=O)(=O)c2ccc(OC)cn2)c2ccc(C#N)cc21` (racemic) [Example 174, (±)-5-Cyano-3-(2-ethoxy-4-methoxy-phenyl)-1-(5-methoxy-pyridine-2-sulfonyl)-3-(4-piperazin-1-yl-piperidin-1-yl)-2,3-dihydro-1H-indol-2-one], the Ki is less than 10 nM.
In the case of “(±)-5-Cyano-3-(2-ethoxy-5-methoxyphenyl)-3-[4-(2-ethylpyridin-4-yl)piperazin-1-yl]-1-(quinoline-8-sulfonyl)-2,3-dihydro-1H-indol-2-one [Example 58]”, the Ki is less than 10 nM.
Molecule `CCOc1ccccc1C1(N2CCN(c3ccnc(CC)c3)CC2)C(=O)N(S(=O)(=O)c2cccc3cccnc23)c2ccc(C#N)cc21` (racemic) [Example 56, (±)-5-Cyano-3-(2-ethoxyphenyl)-3-[4-(2-ethylpyridin-4-yl)piperazin-1-yl]-1-(quinoline-8-sulfonyl)-2,3-dihydro-1H-indol-2-one] came in with a Ki of 10 to 50 nM.
Turning to `CCOc1ccc(OC)cc1C1(N2CCN(C3CCN(C)CC3)CC2)C(=O)N(S(=O)(=O)c2ccc(OC)c3cccnc23)c2ccc(C#N)cc21` (racemic) [Example 161, (±)-5-Cyano-3-(2-ethoxy-5-methoxy-phenyl)-1-(5-methoxy-quinoline-8-sulfonyl)-3-[4-(1-methyl-piperidin-4-yl)-piperazin-1-yl]-2,3-dihydro-1H-indol-2-one], the Ki is less than 10 nM.
As for `CCOc1cc(F)ccc1C1(N2CCN(c3ccncc3)CC2)C(=O)N(S(=O)(=O)c2ccc(C)cn2)c2ccc(C#N)cc21` (racemic) [Example 49, (±)-5-Cyano-3-(2-ethoxy-4-fluorophenyl)-1-(5-methylpyridine-2-sulfonyl)-3-(4-pyridin-4-ylpiperazin-1-yl)-2,3-dihydro-1H-indol-2-one], the inhibitory constant (Ki) was 10 to 50 nM.
The molecule `CCOc1ccc(OC)cc1C1(N2CCN(c3ccnc(C)c3)CC2)C(=O)N(S(=O)(=O)c2cccc3c(C)ccnc23)c2ccc(C#N)cc21` (racemic) [Example 18, (±)-5-Cyano-3-(2-ethoxy-5-methoxyphenyl)-3-[4-(2-methylpyridin-4-yl)piperazin-1-yl]-1-(4-methylquinoline-8-sulfonyl)-2,3-dihydro-1H-indol-2-one] returned an inhibition constant Ki of less than 10 nM.
On to `COc1ccc(C)cc1C1(N2CCN(c3ccncc3)CC2)C(=O)N(S(=O)(=O)c2cccc3cccnc23)c2ccc(C#N)cc21` (racemic) [Example 51, (±)-5-Cyano-3-(2-methoxy-5-methylphenyl)-3-(4-pyridin-4-ylpiperazin-1-yl)-1-quinoline-8-sulfonyl)-2,3-dihydro-1H-indol-2-one], for which the Ki was less than 10 nM.
`COc1ccccc1C1(N2CCN(c3ccncc3)CC2)C(=O)N(S(=O)(=O)c2cccc3cccnc23)c2ccc(Cl)cc21` (racemic) [Example 37, (±)-5-Chloro-3-(2-methoxyphenyl)-3-(4-pyridin-4-ylpiperazin-1-yl)-1-(quinoline-8-sulfonyl)-1,3-dihydroindol-2-one] came in with a Ki of less than 10 nM.
With `CCOc1ccccc1C1(N2CCN(C3CCN(C)CC3)CC2)C(=O)N(S(=O)(=O)c2ccc(OC)cn2)c2ccc(C#N)cc21` (racemic) [Example 83, (±)-5-Cyano-3-(2-ethoxyphenyl)-1-(5-methoxypyridine-2-sulfonyl)-3-[4-(1-methyl-piperidin-4-yl)piperazin-1-yl]-2,3-dihydro-1H-indol-2-one], the inhibition constant (Ki) is 10 to 50 nM.
Molecule `CCOc1ccc(OC)cc1C1(N2CCN(c3ccncc3)CC2)C(=O)N(S(=O)(=O)c2ccc(C)cn2)c2ccc(C#N)cc21` (racemic) [Example 47, (±)-5-Cyano-3-(2-ethoxy-5-methoxyphenyl)-1-(5-methylpyridine-2-sulfonyl)-3-(4-pyridin-4-ylpiperazin-1-yl)-2,3-dihydro-1H-indol-2-one] had a Ki of less than 10 nM.
On to `CCOc1ccc(OC)cc1C1(N2CCN(C3CCNCC3)CC2)C(=O)N(S(=O)(=O)c2ccc(OC)c3cccnc23)c2ccc(C#N)cc21` (racemic) [Example 69, (±)-5-Cyano-3-(2-ethoxy-5-methoxyphenyl)-1-(5-methoxyquinoline-8-sulfonyl)-3-(4-piperidin-4-ylpiperazin-1-yl)-2,3-dihydro-1H-indol-2-one hydrochloride], for which the inhibition constant Ki lay in the range of 10 to 50 nM.
Turning to `COc1ccc(C2(N3CCN(c4ccncc4)CC3)C(=O)N(S(=O)(=O)c3cccc4cccnc34)c3ccc(Cl)cc32)c(OC)c1` (racemic) [Example 1, (±)-5-Chloro-3-(2,4-dimethoxyphenyl)-3-(4-pyridin-4-ylpiperazin-1-yl)-1-(quinoline-8-sulfonyl)-1,3-dihydroindol-2-one], the Ki is less than 10 nM.
Regarding `CCOc1c(OC)cccc1C1(N2CCN(c3ccnc(C(C)C)c3)CC2)C(=O)N(S(=O)(=O)c2ccc(OC)cn2)c2ccc(C#N)cc21` (racemic) [Example 173, (±)-5-Cyano-3-(2-ethoxy-3-methoxy-phenyl)-3-[4-(2-isopropyl-pyridin-4-yl)-piperazin-1-yl]-1-(5-methoxy-pyridine-2-sulfonyl)-2,3-dihydro-1H-indol-2-one], the Ki was less than 10 nM.
The same measure for `CCOc1ccc(OC)cc1C1(N2CCN(c3ccnc(CC)c3)CC2)C(=O)N(S(=O)(=O)c2ccc(OC)cn2)c2ccc(C#N)cc21` (racemic) [Example 146, (±)-5-Cyano-3-(2-ethoxy-5-methoxy-phenyl)-3-[4-(2-ethyl-pyridin-4-yl)-piperazin-1-yl]-1-(5-methoxy-pyridine-2-sulfonyl)-2,3-dihydro-1H-indol-2-one]: less than 10 nM.
The same measure for `CCOc1ccc(OC)cc1C1(N2CCN(c3ccncc3)CC2)C(=O)N(S(=O)(=O)c2ccc(Cl)c3cccnc23)c2ccc(C#N)cc21` (racemic) [Example 48, (±)-5-Cyano-1-(5-chloroquinoline-8-sulfonyl)-3-(2-ethoxy-5-methoxyphenyl)-3-(4-pyridin-4-ylpiperazin-1-yl)-2,3-dihydro-1H-indol-2-one]: 10 to 50 nM; for `CCOc1ccc(OC)cc1C1(N2CCCN(c3ccnc(C(C)C)c3)CC2)C(=O)N(S(=O)(=O)c2ccc(OC)cn2)c2ccc(C#N)cc21` (racemic) [Example 154, (±)-5-Cyano-3-(2-ethoxy-5-methoxy-phenyl)-3-[4-(2-isopropyl-pyridin-4-yl)-[1,4]diazepan-1-yl]-1-(5-methoxy-pyridine-2-sulfonyl)-2,3-dihydro-1H-indol-2-one]: less than 10 nM; for `CCOc1nc(Cl)ccc1C1(N2CCN(c3ccnc(C(C)C)c3)CC2)C(=O)N(S(=O)(=O)c2ccc(OC)cn2)c2ccc(C#N)cc21` (racemic) [Example 167, (±)-5-Cyano-3-(6-chloro-2-ethoxy-pyridin-3-yl)-3-[4-(2-isopropyl-pyridin-4-yl)-piperazin-1-yl]-1-(5-methoxy-pyridine-2-sulfonyl)-2,3-dihydro-1H-indol-2-one]: 10 to 50 nM.

A word on the Ki: it is the equilibrium dissociation constant of an inhibitor or competing ligand from its target. High values mean weaker binding, low ones tighter binding.

Source of the values: US8486931B2, “Substituted oxindole compounds” (Abbott GmbH & Co. KG, priority 2007, dated 2013).
